Measurements from patent publication US11896650B2, “Enhancing chemotherapy in medulloblastoma and glioblastoma with high basal p53 levels” (GEORGETOWN UNIVERSITY, priority 2018, dated 2024).

Tests used:
Type in all cases: cell-based
p110 = assay: Cell viability of cells overexpressing p110 with added mTOR/AKT signaling inhibitor
Method: FIGS. 3A, 3B, 3C, 3D, and 3E show the effects of over expression of p110-caax on D556 and D283 cell survival. D556 cells were transformed with p110 or control plasmid, and Western blots for p110 and β-actin were run (FIG. 3A). The effects of overexpression of p110 on cell viability were determined via Trypan blue assay on D283 cells (FIG. 3B, upper right panel) and D556 cells (FIG. 3C, lower left panel) showing Trypan blue assay results; lower middle panel showing). Cell viability for D556 cells was also measured by propidium iodide (PI) staining and measured by flow cytometry (FIG. 3D, lower middle panel)). Reversal of chemosensitivity induced by p110 overexpression is shown when an inhibitor of mTOR/AKT signaling (Rad001/Everolimus) is added (FIG. 3E)
D556 cells were transformed with p110 or control plasmid and Western blots for p110 and β-actin were run (FIG. 3A). The effects of overexpression of p110 on cell viability were determined via Trypan blue assay on D283 cells (FIG. 3B) and D556 cells (FIG. 3C). Cell viability for D556 cells was also measured by propidium iodide (PI) staining and measured by flow cytometry (FIG. 3D).

pmTOR in D556 cells = assay: Western blot for pmTOR in D556 cells infected with p53 shRNA or control pLKO lentivirus
Method: D556 cells were infected with either p53 shRNA or control pLKO lentivirus and Western blotting was performed to show the effect of p53 inhibition on pmTOR.

D556 cells [1] = assay: Cell survival of D556 cells after p53 knockdown and drug treatment; details: 18 hours treatment
Method: (§1) Comparative sensitivities of D556 cells treated with cisplatin (FIG. 6B) or vincristine (FIG. 6C) were tested at the concentrations shown and in the presence or absence of thymosin β-4 (5 nM). * p<0.05, N>3 separate experiments.
(§2) For chemosensitivity testing, the effects of p53 knockdown on cell survival of D556 cells treated with doxorubicin (dox), vincristine (vinc) and cisplatin (csp) was further assessed.

D556 cells [2] = assay: Apoptotic cell death of D556 cells after p53 and mTOR shRNA knockdown and drug treatment (trypan blue, annexin V/PI); details: p53 loss plus mTOR knockdown
Method: FIGS. 2A, 2B and 2C show the effect of silencing of p53 and mTOR in D556 cells. FIG. 2A and FIG. 2B are bar graphs showing the proportion of cells undergoing apoptotic cell death as a result of infection with p53 shRNA, control pLKO, mTOR and both p53 and mTOR lentivirus in D556 cells treated for 18 hrs with DMSO, VMY (30 uM) or doxorubicin (1 uM) as assessed using Trypan blue (FIG. 2A) and annexin V and propidium iodide (PI) staining (FIG. 2B) and measured by flow cytometry. Data are shown as percent change in staining versus pLKO-control infected cells.
The proportion of cells undergoing apoptotic cell death as a result of infection with p53 shRNA, control pLKO, mTOR and both p53 and mTOR lentivirus in D556 cells treated for 18 hrs with DMSO, VMY (30 uM) or doxorubicin (1 uM) was assessed using trypan blue (FIG. 2A) and annexin V and propidium iodide (PI) staining (FIG. 2B) and measured by flow cytometry. Data were determined as the percent change in staining versus pLKO-control infected cells.

D556 cells [3] = assay: Cell viability of D556 cells treated with chemotherapeutic agents with or without Tβ-4 (propidium iodide staining, flow cytometry; wst-1)
Method: (§3) FIGS. 4A, 4B, and 4C show the effects of thymosin beta-4 (Tβ-4) on D556 and D283 cell survival. For cell viability assays, D556 cells (FIG. 4A) and D283 cells (FIG. 4B) were treated with DMSO, doxorubicin, or VMY in the presence or absence of Tβ-4, and cell viability as measured using propidium iodide (PI) staining with flow cytometry. Control cells were untreated. […] GADPH expression was used as a control.
(§4) The effect of Tβ-4 was evaluated using a cell viability assay for D556 and D283 cells. D556 and D283 cells were treated with 5 nM Tβ-4 and either doxorubicin or VMY. Viability of D556 cells (FIG. 4A) and of D283 cells (FIG. 4B) was measured using propidium iodide (PI) staining with flow cytometry. A dose response curve was performed for D556 cells treated with vincristine alone or vincristine plus Tβ-4 using a cellular proliferation assay kit wst-1 (FIG. 4C).

D283 cells = assay: Cell viability of D283 cells treated with chemotherapeutic agents with or without Tβ-4 (propidium iodide staining, flow cytometry)
Method: as §3, §4

D556 cells [4] = assay: Chemosensitivity testing of D556 cells with cisplatin or vincristine in presence or absence of Tβ-4; details: Tβ-4 5 nM; p<0.05
Method: as §1, §2

[5] = tested on: Akt, PP2A (α and c subunit), PARP and RIP1 in D556 cells; assay: Western blot of D556 cells after Tβ-4 treatment
Method: FIGS. 5A, 5B, 5C and 5D are Western blots showing that Tβ-4 treatment of D556 cells induces expression of Akt, PP2A (α and c subunits), PARP, and RIP1.
To further assess the mechanism of effect of Tβ-4 treatment of D556 cells, Western blot were performed.

[6] = with doxorubicin, vincristine, VMY-1-103

Molecule: CO[C@H]1C[C@@H]2CC[C@@H](C)[C@@](O)(O2)C(=O)C(=O)N2CCCC[C@H]2C(=O)O[C@H]([C@H](C)C[C@@H]2CC[C@@H](OCCO)[C@H](OC)C2)CC(=O)[C@H](C)/C=C(\C)[C@@H](O)[C@@H](OC)C(=O)[C@H](C)C[C@H](C)/C=C/C=C/C=C/1C [Rad001/Everolimus, Everolimus]
- effect on chemosensitivity induced by p110 overexpression (p110): reversed the chemosensitivity induced by p110

Molecule: CC(C)[C@H](CO)Nc1nc(Nc2ccc(C(=O)NCCNS(=O)(=O)c3cccc4c(N(C)C)cccc34)c(Cl)c2)c2ncn(C(C)C)c2n1 [VMP]
- pmTOR level in cells infected with p53 shRNA vs control pLKO lentivirus (pmTOR in D556 cells): induction of pmTOR

Molecule: N.N.[Cl][Pt][Cl] [cisplatin]
- cell survival of p53 shRNA infected D556 cells vs control pLKO lentivirus (D556 cells [1]): lower percentage of cell survival

Molecule: COc1cccc2c1C(=O)c1c(O)c3c(c(O)c1C2=O)C[C@@](O)(C(=O)CO)C[C@@H]3O[C@H]1C[C@H](N)[C@H](O)[C@H](C)O1 [doxorubicin]
- cell survival of p53 shRNA infected D556 cells vs control pLKO lentivirus (D556 cells [1]): lower percentage of cell survival
- pmTOR level in cells infected with p53 shRNA vs control pLKO lentivirus (pmTOR in D556 cells): induction of pmTOR
- chemoresistance of p53-suppressed D556 cells after shRNA knockdown of mTOR (D556 cells [2]): restoring chemoresistance

Molecule: CC[C@]1(O)C[C@H]2CN(CCc3c([nH]c4ccccc34)[C@@](C(=O)OC)(c3cc4c(cc3OC)N(C=O)[C@H]3[C@@](O)(C(=O)OC)[C@H](OC(C)=O)[C@]5(CC)C=CCN6CC[C@]43[C@@H]65)C2)C1 [vincristine]
- cell survival of p53 shRNA infected D556 cells vs control pLKO lentivirus (D556 cells [1]): lower percentage of cell survival
- chemoresistance of p53-suppressed D556 cells after shRNA knockdown of mTOR (D556 cells [2]): restoring chemoresistance

Molecule: Tβ-4: multifunctional regenerative peptide, sequence MSDKPDMAEIEKFDKSKLKKTETQEKNPLPSKETIEQEKQAGES (SEQ ID NO:1); PI3K activator; commercially available as RGN-352 (MSDKPDMAEIEKFDKSKLKKTETQEKNPLPSKETIEQEKQAGES; listed as Homo sapiens)
- Tβ-4 sensitivity of cell line (D556 cells [3]; D556 cells): sensitive
- sensitization of MB cells with high p53 levels to chemotherapeutic agents (D556 cells [3]; [6]): sensitizes MB cells with high p53 levels to chemotherapeutic agents
- Tβ-4 sensitivity of cell line (D283 cells; D286 cells): insensitive
- protection of D283 (p53 low) cells from chemotherapeutic agents (D283 cells; [6]): protects D283 (p53 low) cells from the same drugs
- sensitivity of D556 cells to cisplatin in presence vs absence of Tβ-4 (D556 cells [4]): significantly more sensitivity
- sensitivity of D556 cells to vincristine in presence vs absence of Tβ-4 (D556 cells [4]): significantly more sensitivity
- protein induction by Western blot [5]: induces Akt, PP2A (α and c subunit), PARP and RIP1
